# Source: patent US20240400555A1 (Initial Therapeutics, Inc., priority 2023, published 2024)
# Test system: HCT-116 Firefly-luciferase reporter cells
# Assay: Cellular c-MYC Reporter Assay
# Type: cell-based
# Settings: Homo sapiens; untitled table following Table 8a; HCT-116 Firefly-luciferase reporter cells, 24 h; read-out: pIC50 (converted)
# Description: HCT-116 Firefly-luciferase reporter cells (BPS Bioscience) were seeded in 96-well tissue-culture treated sterile plates (Greiner Bio-One) at 5e4 cells/mL in 100 μL complete growth media (McCoy's 5A+10% FBS, +1% Pen-Strep, +1% G418). Cells were incubated at 37° C. with 5% CO2 for 4-6 h then treated with 3× compound solution in 50 μL complete growth media for a final volume of 150 μL per well with 0.2% DMSO. After 24 h incubation at 37° C. with 5% CO2, plates were allowed to equilibrate to RT for 20 min then developed by addition of 100 μL ONE-Glo Luciferase detection reagent (Promega), incubated at RT for 10 min. Luminescence was recorded using a SpectraMax i3x plate reader (Molecular Devices) and analyzed using Prism GraphPad 9 software.
row,IC50 [nM],Structure (SMILES)
1,295,"Cc1cccc2ccnc(N(C(=O)c3ccc(-n4nnc(C(C)C)n4)cc3F)[C@@H]3CCCNC3)c12 [Example 285, (R)-2-fluoro-4-(5-isopropyl-2H-tetrazol-2-yl)-N-(8-methylisoquinolin-1-yl)-N-(piperidin-3-yl) benzamide]"
2,8510,"Cc1cccc2ccnc(N(C(=O)c3ccc(-n4nccn4)cc3)[C@@H]3CCCNC3)c12 [Example 235, (R)—N-(8-methylisoquinolin-1-yl)-N-(piperidin-3-yl)-4-(2H-1,2,3-triazol-2-yl)benzamide]"
3,1200,"O=C(c1ccc(-n2nnc3cccnc32)cc1F)N(c1nccc2ccc(Br)cc12)[C@@H]1CCCNC1 [Example 283, (R)-4-(3H-[1,2,3]triazolo[4,5-b]pyridin-3-yl)-N-(7-bromoisoquinolin-1-yl)-2-fluoro-N-(piperidin-3-yl)benzamide]"
4,4900,"Cc1cccc2ccnc(N(C(=O)c3ccc(Nc4ccn(C)n4)cc3F)[C@@H]3CCCNC3)c12 [Example 277, (R)-2-fluoro-4-((1-methyl-1H-pyrazol-3-yl)amino)-N-(8-methylisoquinolin-1-yl)-N-(piperidin-3-yl)benzamide]"
5,851,"Cn1cnc2ccnc(N(C(=O)c3ccc(-n4nnc5cccnc54)cc3F)[C@@H]3CCCNC3)c21 [Example 248, (R)-4-(3H-[1,2,3]triazolo[4,5-b]pyridin-3-yl)-2-fluoro-N-(3-methyl-3H-imidazo[4,5-c]pyridin-4-yl)-N-(piperidin-3-yl)benzamide]"
6,100,"Cc1cn(C)c2c(N(C(=O)c3ccc(-n4nnc5cccnc54)cc3F)[C@@H]3CCCNC3)nccc12 [Example 255, (R)-4-(3H-[1,2,3]triazolo[4,5-b]pyridin-3-yl)-N-(1,3-dimethyl-1H-pyrrolo[2,3-c]pyridin-7-yl)-2-fluoro-N-(piperidin-3-yl)benzamide]"
7,9120,"CN1CCC(C2CCN(C(=O)N(c3cc4ccccc4cn3)[C@@H]3CCCNC3)CC2)C1 (stereo partly drawn) [Example 256, N-(isoquinolin-3-yl)-4-(1-methylpyrrolidin-3-yl)-N—((R)-piperidin-3-yl)piperidine-1-carboxamide]"
8,> 10000,"Cc1cccc2ccnc(N(C(=O)C3CCN(C=O)CC3)[C@@H]3CCCNC3)c12 [Example 301, (R)-1-formyl-N-(8-methylisoquinolin-1-yl)-N-(piperidin-3-yl) piperidine-4-carboxamide]"
9,> 20000,"Cc1cccc2ccnc(N(C(=O)c3ccc(-n4nnc5cccnc54)cc3)[C@@H]3CC[C@@H](C)NC3)c12 [Example 226, 4-(3H-[1,2,3]triazolo[4,5-b]pyridin-3-yl)-N-(8-methylisoquinolin-1-yl)-N-((3R,6R)-6-methylpiperidin-3-yl)benzamide]"
10,214,"Cc1cccc2ccnc(N(C(=O)c3ccc(-n4nnc5ccccc54)cc3)[C@@H]3CCCNC3)c12 [Example 223, (R)-4-(1H-benzo[d][1,2,3]triazol-1-yl)-N-(8-methylisoquinolin-1-yl)-N-(piperidin-3-yl)benzamide]"
11,240,"Cc1cccc2ccnc(N(C(=O)c3ccc(-c4cnccn4)cc3)[C@@H]3CCCNC3)c12 [Example 238, (R)—N-(8-methylisoquinolin-1-yl)-N-(piperidin-3-yl)-4-(pyrazin-2-yl)benzamide]"
12,589,"Cc1cccc2ccnc(N(C(=O)c3ccc(-c4cccnn4)cc3)[C@@H]3CCCNC3)c12 [Example 237, (R)—N-(8-methylisoquinolin-1-yl)-N-(piperidin-3-yl)-4-(pyridazin-3-yl)benzamide]"
13,708,"Cc1cccc2ccnc(N(C(=O)c3ccc(-c4cccnc4)cc3)[C@@H]3CCCNC3)c12 [Example 233, (R)—N-(8-methylisoquinolin-1-yl)-N-(piperidin-3-yl)-4-(pyridin-3-yl)benzamide]"

# The remaining lines, values behind:
row,Structure (SMILES),IC50 [nM]
1,"CCOC(=O)/C=C/c1ccc2ccnc(N(C(=O)c3ccc(-n4nnc5cccnc54)cc3F)[C@@H]3CCCNC3)c2c1 [Example 130, ethyl (R,E)-3-(1-(4-(3H-[1,2,3]triazolo[4,5-b]pyridin-3-yl)-2-fluoro-N-(piperidin-3-yl)benzamido)isoquinolin-7-yl)acrylate]",2290
2,"O=C(c1ccc(-n2nnc3cccnc32)cc1F)N(c1nccc2ccc(-c3cccnc3)cc12)[C@@H]1CCCNC1 [Example 151, (R)-4-(3H-[1,2,3]triazolo[4,5-b]pyridin-3-yl)-2-fluoro-N-(piperidin-3-yl)-N-(7-(pyridin-3-yl)isoquinolin-1-yl)benzamide]",1020
3,"Cc1csc2ccnc(N(C(=O)c3ccc(-n4nnc5cccnc54)cc3F)[C@@H]3CCCNC3)c12 [Example 121, 2-fluoro-N-(3-methylthieno[3,2-c]pyridin-4-yl)-N-[(3R)-3-piperidyl]-4-(triazolo[4,5-b]pyridin-3-yl)benzamide]",38
4,"O=C(c1ccc(I)cc1F)N(c1nccc2cccc(Cl)c12)[C@@H]1CCCNC1 [Example 141, (R)—N-(8-chloroisoquinolin-1-yl)-2-fluoro-4-iodo-N-(piperidin-3-yl)benzamide]",1910
5,"O=C(c1ccc(-n2nnc3cccnc32)cc1F)N(c1nccc2cc(F)ccc12)[C@@H]1CCCNC1 [Example 144, (R)-4-(3H-[1,2,3]triazolo[4,5-b]pyridin-3-yl)-2-fluoro-N-(6-fluoroisoquinolin-1-yl)-N-(piperidin-3-yl)benzamide]",603
6,"O=C(c1ccc(-n2nnc3cccnc32)cc1F)N(c1nccc2cc(Br)ccc12)[C@@H]1CCCNC1 [Example 143, (R)-4-(3H-[1,2,3]triazolo[4,5-b]pyridin-3-yl)-N-(6-bromoisoquinolin-1-yl)-2-fluoro-N-(piperidin-3-yl)benzamide]",724
7,"Cc1cccc2ccnc(N(C(=O)c3ccc(-n4nccn4)cc3F)[C@@H]3CCCNC3)c12 [Example 194, (R)-2-fluoro-N-(8-methylisoquinolin-1-yl)-N-(piperidin-3-yl)-4-(2H-1,2,3-triazol-2-yl)benzamide]",1200
8,"Cc1cccc2ccnc(N(C(=O)c3ccc(-n4nnc5ccc(Cl)nc54)cc3F)[C@@H]3CCCNC3)c12 [Example 192, (R)-4-(5-chloro-3H-[1,2,3]triazolo[4,5-b]pyridin-3-yl)-2-fluoro-N-(8-methylisoquinolin-1-yl)-N-(piperidin-3-yl)benzamide]",170
9,"O=C(c1ccc(-n2nnc3cccnc32)cc1F)N(c1ncccc1-c1cnoc1)[C@@H]1CCCNC1 [Example 114, (R)-4-(3H-[1,2,3]triazolo[4,5-b]pyridin-3-yl)-2-fluoro-N-(3-(isoxazol-4-yl)pyridin-2-yl)-N-(piperidin-3-yl)benzamide]",1120
10,"O=C(c1ccc(-n2nnc3cccnc32)cc1F)N(c1ncccc1C#CCCO)[C@@H]1CCCNC1 [Example 105, 2-fluoro-N-[3-(4-hydroxybut-1-ynyl)-2-pyridyl]-N-[(3R)-3-piperidyl]-4-(triazolo[4,5-b]pyridin-3-yl)benzamide]",6310
11,"N#Cc1cccc2ccnc(N(C(=O)c3ccc(-n4nnc5cccnc54)cc3F)[C@@H]3CCCNC3)c12 [Example 164, (R)-4-(3H-[1,2,3]triazolo[4,5-b]pyridin-3-yl)-N-(8-cyanoisoquinolin-1-yl)-2-fluoro-N-(piperidin-3-yl)benzamide]",97.7
12,"O=C(c1ccc(-n2nnc3cccnc32)cc1F)N(c1ncccc1C1=CCNC1)[C@@H]1CCCNC1 [Example 113, (R)-4-(3H-[1,2,3]triazolo[4,5-b]pyridin-3-yl)-N-(3-(2,5-dihydro-1H-pyrrol-3-yl)pyridin-2-yl)-2-fluoro-N-(piperidin-3-yl)benzamide]",4270
13,"Cc1cccc2ccnc(N(C(=O)c3ccc(-n4nnc5ccc(C(N)=O)nc54)cc3F)[C@@H]3CCCNC3)c12 [Example 170, (R)-3-(3-fluoro-4-((8-methylisoquinolin-1-yl)(piperidin-3-yl)carbamoyl)phenyl)-3H-[1,2,3]triazolo[4,5-b]pyridine-5-carboxamide]",56.2
14,"O=C(c1ccc(-n2nnc3cccnc32)cc1F)N(c1nccc2cc(CO)ccc12)[C@@H]1CCCNC1 [Example 146, (R)-4-(3H-[1,2,3]triazolo[4,5-b]pyridin-3-yl)-2-fluoro-N-(6-(hydroxymethyl)isoquinolin-1-yl)-N-(piperidin-3-yl)benzamide]",562
15,"O=C(c1ccc(-n2nnc3cccnc32)cc1F)N(c1nccc2cccc(/C=C/c3cccnc3)c12)[C@@H]1CCCNC1 [Example 163, (R,E)-4-(3H-[1,2,3]triazolo[4,5-b]pyridin-3-yl)-2-fluoro-N-(piperidin-3-yl)-N-(8-(2-(pyridin-3-yl)vinyl)isoquinolin-1-yl)benzamide]",537
16,"C=C(C)c1cccnc1N(C(=O)c1ccc(-n2nnc3cccnc32)cc1F)[C@@H]1CCCNC1 [Example 108, (R)-4-(3H-[1,2,3]triazolo[4,5-b]pyridin-3-yl)-2-fluoro-N-(piperidin-3-yl)-N-(3-(prop-1-en-2-yl)pyridin-2-yl)benzamide]",129
17,"Cc1cccc2ccnc(N(C(=O)c3ccc(-n4nnc5cccnc54)cc3F)[C@H]3CNCC(F)(F)C3)c12 [Example 175, (R)-4-(3H-[1,2,3]triazolo[4,5-b]pyridin-3-yl)-N-(5,5-difluoropiperidin-3-yl)-2-fluoro-N-(8-methylisoquinolin-1-yl)benzamide]",9330
18,"Cn1cc(-c2cccnc2N(C(=O)c2ccc(-n3nnc4cccnc43)cc2F)[C@@H]2CCCNC2)cn1 [Example 115, (R)-4-(3H-[1,2,3]triazolo[4,5-b]pyridin-3-yl)-2-fluoro-N-(3-(1-methyl-1H-pyrazol-4-yl)pyridin-2-yl)-N-(piperidin-3-yl)benzamide]",550
